One data set deals with rats. Kind of data set: Oral tolerability of DAB dendrimers fed in the diet. The class given is in vivo. The conditions noted are these: as hydrochlorides; for tolerability in rats: 0.15% of the diet; for tolerability in rats, observation: 0.3% or 0.6% of the diet, after 5 days (data not shown). From the text: Unfortunately, little is known regarding the toxicity of DAB dendrimers when administered orally. Previous research has shown DAB dendrimers to be cytotoxic in vitro (Duncan R et al., Dendrimer biocompatibility and toxicity, Adv Drug Deliv Rev 2005, 57:2215-2237) and when administered intravenously, the DAB dendrimers are lethal. (Schatzlein A G et al., Preferential liver gene expression with polypropylenimine dendrimers, J Control Release 2005, 101:247-258). In our experiments, however, the DAB dendrimers were well tolerated by rats when administered orally.

Data set [1] deals with Intestinal Phosphate Absorption. Kind of data set: Fecal calcium and phosphorus measurements, binder in purified diet. The class given is in vivo, rats. The conditions noted are these: for mg P per gram feces: 48 h fecal collection, mean ± SEM, control 3.79 ± 0.18; for fecal phosphorus levels versus control diet or diet with 0.15% Renagel / increase in fecal phosphorus versus the increase from excess calcium or an equivalent amount of Renagel: 0.15% of diet; for fecal phosphorus levels versus control diet or diet with 0.15% Renagel: DAB-8 and DAB-16 significant by Fisher's LSD test only; for increase in fecal phosphorus versus the increase from excess calcium or an equivalent amount of Renagel: Fisher's LSD test only. An excerpt:
(§1) Animals. Male Sprague-Dawley rats (Harlan Sprague-Dawley, Madison, Wis.) weighing approximately 120 grams were used in all experiments.
In experiments to measure fecal calcium and phosphorus levels, rats were fed purified diet described previously for 9 days. (Suda T et al., Biological activity of 25-hydroxyergocalciferol in rats, J Nutr 1970, 100:1049-1052). This diet was mixed with egg white protein (Harlan Teklad, Madison, Wis.) and contained 0.20% inorganic phosphorus and 0.47% calcium. The purified diet was supplemented with 100 μL soybean oil (Wesson oil, ConAgra Foods, Irvine, Calif.) containing 500 μg α-tocopherol, 60 μg menadione, 40 μg β-carotene, and 1.875 μg cholecalciferol three times each week.
Fecal calcium and phosphorus measurements. Rats were fed the purified diet described above or the same diet with 1.2% calcium, 0.15% Renagel®, or 0.15% DAB-4, DAB-8, or DAB-16 for 7 days. Rats were then moved to metabolic cages and fecal matter was collected for 48 hours. Fecal samples were frozen, lyophilized, and heated to over 600° C. overnight in a muffle oven. Remaining ash was then dissolved overnight in 25 mL 6 N HCl. The calcium concentration of the acid was determined by flame atomic absorption spectroscopy (Model 3110, Perkin Elmer, Norwalk, Conn.) using an aliquot of the dissolved ash diluted 1:40 with 1 g/L LaCl3. The phosphorus concentration of an aliquot of the dissolved ash was determined by a colorimetric assay described previously. (Itaya K et al., A new micromethod for the colorimetric determination of inorganic phosphate, Clin Chim Acta 1966, 14:361-366).
(§2) Statistical analysis. Data are presented as means±standard error of the means (SEM). Treatment groups were compared by a fully factorial analysis of variance (ANOVA) and means were subjected to Tukey, Scheffe, and Fisher's Least-Significant-Difference (LSD) tests (Systat 5.2.1, Systat Software, Inc., Point Richmond, Calif.). Differences were considered significant if at least two of the tests detected significance with a p-value <0.05, unless specified otherwise.

Data set [2] shares this test system. Kind of data set: Intestinal phosphate absorption: oral 33P dose after gavage of phosphate binder. The class given is in vivo, rats. The conditions noted are these: for amount of 33P remaining in the digestive tract compared with water (FIG. 3A) / serum 33P levels compared with water (FIG. 3B): 10 mg calcium, 14.4 mg Renagel or novel binder (Table 1); for binding / absorption of an oral 33P dose (summary): administered orally in rats; for 33P remaining in the intestine compared to Renagel, dose response study (FIG. 4A) / serum 33P levels compared to Renagel, dose response study (FIG. 4B): two highest levels of DAB-8 and DAB-16, highest level of DAB-64, vs 14.4 mg Renagel. As for the experimental part:
as §1
In experiments to measure ^33P absorption, the rats were fed a laboratory chow diet (Lab Diet 5012, Richmond, Ind.) containing 1% calcium and 0.7% phosphorus ad libitum for less than one week prior to the experiment.
Intestinal Phosphate Absorption. Following an overnight fast, rats were administered 0.5 mL water or an oral phosphate binder dissolved in water via gastric gavage. A second dose of 0.5 mL containing 3 μCi ^33P (as H3PO4, specific activity 155.8 Ci/mg, New England Nuclear/Perkin Elmer, Boston, Mass.) in a 10, 50, or 100 mM KH2PO4 buffer at pH 7.4 was immediately administered via gastric gavage. Rats were killed by CO2 asphyxiation immediately or 60 minutes after the oral dose. The rats killed immediately (labeled “0 min control” in figures) were used to determine if the oral ^33P dose was properly administered and completely recovered.
Blood was collected via heart puncture and centrifuged at 1500×g for 15 minutes at 22° C. to yield serum. A suture was tied to the cranial end of the esophagus to contain liquid inside the stomach. The entire digestive tract was then removed and allowed to dissolve for several days in concentrated HNO3 (approximately 1 mL HNO3 per gram tissue). The exact volume of the dissolved digestive tract was determined by diluting the dissolved tissues to equal volumes with water.
The amount of radioactivity in total body serum and total volume of dissolved tissue was determined following liquid scintillation counting of 50 μL aliquots in triplicate (Tri-Carb Liquid Scintillation Analyzer, Perkin-Elmer/Packard, Boston, Mass.). Total body serum was estimated to be 40 mL serum/kg body weight. (Hawk T et al., 1999, Formulary for laboratory animals, Ames, Iowa: Iowa State University Press.)
as §2
Materials and Methods. The relevant materials and methods were the same as set forth above except that instead of using “0.5 mL of water or 39.5 mg calcium acetate, 14.4 mg RENAGEL, or up to 132.8 mg of test dendrimer,” the following was used “0.5 mL of water, 14.4 mg RENAGEL or 10 mg DAB-8 as the hydroacetate or hydrocitrate form dissolved in water.”

Setting [3] is: 14.4 mg Renagel or 10 mg DAB-8 as acetate or citrate, 10 mM KH2PO4, 60 min.
Where [4] appears, read: 10 mM KH2PO4, 60 min, listed as DAB-16-Cl.

The results in this text go back to patent US8114393B2, “Methods and compositions for phosphate binding” (Wisconsin Alumni Research Foundation, priority 2005, dated 2012).

`Cl.Cl.Cl.Cl.Cl.Cl.NCCCN(CCCN)CCCCN(CCCN)CCCN` [DAB-4, polypropylenimine tetraamine Dendrimer perhydrochloride]: in the data set on rats, the tolerability in rats entry is “tolerated” and the “tolerability in rats, observation” value is “only softened stool was observed”. Besides, the “mg P per gram feces” value in data set [1] (0.15% of diet for 7 days) was determined as 4.30 ± 0.13 mg P per gram feces. For the same molecule, the “fecal phosphorus levels versus control diet or diet with 0.15% Renagel” value in data set [1] is given as “increased, though not significantly”. Moreover, in data set [2] (10 mM KH2PO4, 60 min), the “amount of 33P remaining in the digestive tract compared with water (FIG. 3A)” value is reported as “significantly increased” and the “serum 33P levels compared with water (FIG. 3B)” value is reported as “significantly reduced”.

Turning to `Cl.Cl.N[C@@H]1CO[C@@H]2[C@H]1OC[C@H]2N` [FC, 1,4:3,6-Dianhydro-2,5-diamino-2,5-dideoxy-D-iditol dihydrochloride], in data set [2] (10 mM KH2PO4, 60 min), the “amount of 33P remaining in the digestive tract compared with water (FIG. 3A)” value was “did not affect” and the “serum 33P levels compared with water (FIG. 3B)” value is “slight, but significant, decrease”. In addition, the “binding / absorption of an oral 33P dose (summary)” value in data set [2] is on record as “does not appear to bind”.

Consider `Cl.Cl.Cl.Cl.NC[C@@H](N)[C@@H](N)CN` [KB-54, erythro-1,2,3,4-tetraminobutane tetrahydrochloride], for which, in data set [2] (10 mM KH2PO4, 60 min), the “amount of 33P remaining in the digestive tract compared with water (FIG. 3A)” value is reported as “significantly increased” and the “serum 33P levels compared with water (FIG. 3B)” value is recorded as “significantly reduced”. The “binding / absorption of an oral 33P dose (summary)” value in data set [2] was “reduced the absorption”.

In the case of `CC(=O)[O-].CC(=O)[O-].[Ca+2]` [calcium, Calcium acetate, reference compound], in data set [1] (1.20% Ca diet for 7 days), the “mg P per gram feces” value was found to be 4.39 ± 0.23 mg P per gram feces. Moreover, the “fecal phosphorus versus control diet” value in data set [1] (1.20% calcium diet) is “increased, though not significantly”. Further, in data set [2] (10 mM KH2PO4, 60 min), the “amount of 33P remaining in the digestive tract compared with water (FIG. 3A)” value is given as “significantly increased” and the “serum 33P levels compared with water (FIG. 3B)” value is recorded as “significantly reduced”. Moreover, in data set [2] (20 mg calcium (as calcium acetate) or 14.4 mg Renagel by gavage, 33P in 10, 50 or 100 mM KH2PO4, fasted rats), the “33P remaining in the intestine after 60 minutes compared with water (FIG. 2A)” value is recorded as “significantly more”. For the same molecule, the “33P bound in the intestine compared with 14.4 mg Renagel (FIG. 2A)” value in data set [2] (20 mg calcium, difference significant in 10 or 100 mM phosphate, 60 min) is on record as “bound more ^33P in the intestine”. For the same molecule, in data set [2] (calcium (printed 10 mg) or 14.4 mg Renagel, 10, 50 or 100 mM KH2PO4, 60 min), the “serum 33P levels compared with water (FIG. 2B)” value is “significant decrease”.

In the case of “DAB-Am-8, Polypropylenimine octaamine Dendrimer citrate (Generation 2.0) [DAB-8 as citrate]”, in data set [2] (setting [3]), the “33P in the serum compared with vehicle pretreatment (FIG. 26)” value is reported as “significantly less” and the “33P retained in the gut compared with vehicle pretreatment (FIG. 25)” value is on record as “significantly more”.

Consider “Polypropylenimine hexadecaamine Dendrimer perhydrochloride [DAB-16]”, for which, in the data set on rats, the tolerability in rats entry is given as “tolerated” and the “tolerability in rats, observation” value is on record as “only softened stool was observed”. For the same molecule, the “mg P per gram feces” value in data set [1] (0.15% of diet for 7 days) is 4.78 ± 0.30 mg P per gram feces. Further, in data set [1], the “fecal phosphorus levels versus control diet or diet with 0.15% Renagel” value is recorded as “significantly increased” and the “increase in fecal phosphorus versus the increase from excess calcium or an equivalent amount of Renagel” value was “significantly higher”. For the same molecule, in data set [2] (10 mM KH2PO4, 60 min), the “33P retained in the digestive tract versus DAB-4 at an equivalent amount of free amino groups (FIG. 5A)” value was “bound significantly more”, the “33P retained in the digestive tract versus DAB-8 at equimolar amounts (FIG. 5A)” value is reported as “retained significantly more”, the “amount of 33P remaining in the digestive tract compared to a comparable amount of Renagel (FIG. 3A)” value is recorded as “bound significantly more” and the “serum 33P levels compared to a comparable amount of Renagel (FIG. 3B)” value is given as “significantly reduced”. Moreover, in data set [2] (10 mM KH2PO4, 60 min), the “amount of 33P remaining in the digestive tract compared with water (FIG. 3A)” value was “significantly increased” and the “serum 33P levels compared with water (FIG. 3B)” value is listed as “significantly reduced”. In data set [2] (setting [4]), the “33P retained in the digestive tract versus DAB-8 at equimolar amounts (FIG. 5A)” value is “significantly more” and the “amount of 33P remaining in the digestive tract compared to a comparable amount of Renagel (FIG. 3A)” value was “significantly increased”. Further, in data set [2] (13.9 mg, the only level of binder with significant effect), the “serum 33P levels compared with water, mechanism study (FIG. 5B)” value is recorded as “significantly reduce”. Moreover, in data set [2], the “33P remaining in the intestine compared to Renagel, dose response study (FIG. 4A)” value is listed as “significantly increased” and the “serum 33P levels compared to Renagel, dose response study (FIG. 4B)” value (“serum 33P levels compared to Renagel” below) was “significantly reduced”.

Take “Polypropylenimine tetrahexacontaamine Dendrimer perhydrochloride [DAB-64]”: in data set [2] (10 mM KH2PO4, 60 min), the “amount of 33P remaining in the digestive tract compared with water (FIG. 3A)” value is reported as “significantly increased” and the “serum 33P levels compared with water (FIG. 3B)” value was “significantly reduced”. Also, in data set [2], the “33P remaining in the intestine compared to Renagel, dose response study (FIG. 4A)” value is given as “significantly increased” and the “serum 33P levels compared to Renagel” value is recorded as “significantly reduced”.

Regarding “polypropylenimine octaamine Dendrimer perhydrochloride [DAB-8]”, in the data set with rats, the tolerability in rats result was “tolerated” and the “tolerability in rats, observation” value is “only softened stool was observed”. Also, in data set [1] (0.15% of diet for 7 days), the “mg P per gram feces” value was found to be 4.71 ± 0.53 mg P per gram feces. Also, in data set [1], the “fecal phosphorus levels versus control diet or diet with 0.15% Renagel” value was “significantly increased” and the “increase in fecal phosphorus versus the increase from excess calcium or an equivalent amount of Renagel” value is “significantly higher”. Also, in data set [2] (10 mM KH2PO4, 60 min), the “amount of 33P remaining in the digestive tract compared to a comparable amount of Renagel (FIG. 3A)” value is given as “bound significantly more”, the “serum 33P levels compared to a comparable amount of Renagel (FIG. 3B)” value was “significantly reduced”, the “amount of 33P remaining in the digestive tract compared with water (FIG. 3A)” value is “significantly increased” and the “serum 33P levels compared with water (FIG. 3B)” value is on record as “significantly reduced”. Besides, the “amount of 33P remaining in the digestive tract compared to a comparable amount of Renagel (FIG. 3A)” value in data set [2] (10 mM KH2PO4, 60 min, listed as DAB-8-Cl) is given as “significantly increased”. Also, in data set [2], the “33P remaining in the intestine compared to Renagel, dose response study (FIG. 4A)” value is reported as “significantly increased” and the “serum 33P levels compared to Renagel” value is given as “significantly reduced”.
